Patent publication US8895746B2 (University of Central Florida Research Foundation, Inc., priority 2009, dated 2014)

Legend:
Stat1:Stat1 complex = biological target: T1, Stat1:Stat1 complex (Mus musculus, UniProt P42225); experiment: EMSA selectivity, nuclear extracts of EGF-stimulated NIH3T3/hEGFR, hSIE probe; type: biochemical
T1 construct: endogenous in cells; host or cells: EGF-stimulated NIH3T3/hEGFR mouse fibroblasts (nuclear extract)
T1 sequence (P42225 2-749 limits assumed): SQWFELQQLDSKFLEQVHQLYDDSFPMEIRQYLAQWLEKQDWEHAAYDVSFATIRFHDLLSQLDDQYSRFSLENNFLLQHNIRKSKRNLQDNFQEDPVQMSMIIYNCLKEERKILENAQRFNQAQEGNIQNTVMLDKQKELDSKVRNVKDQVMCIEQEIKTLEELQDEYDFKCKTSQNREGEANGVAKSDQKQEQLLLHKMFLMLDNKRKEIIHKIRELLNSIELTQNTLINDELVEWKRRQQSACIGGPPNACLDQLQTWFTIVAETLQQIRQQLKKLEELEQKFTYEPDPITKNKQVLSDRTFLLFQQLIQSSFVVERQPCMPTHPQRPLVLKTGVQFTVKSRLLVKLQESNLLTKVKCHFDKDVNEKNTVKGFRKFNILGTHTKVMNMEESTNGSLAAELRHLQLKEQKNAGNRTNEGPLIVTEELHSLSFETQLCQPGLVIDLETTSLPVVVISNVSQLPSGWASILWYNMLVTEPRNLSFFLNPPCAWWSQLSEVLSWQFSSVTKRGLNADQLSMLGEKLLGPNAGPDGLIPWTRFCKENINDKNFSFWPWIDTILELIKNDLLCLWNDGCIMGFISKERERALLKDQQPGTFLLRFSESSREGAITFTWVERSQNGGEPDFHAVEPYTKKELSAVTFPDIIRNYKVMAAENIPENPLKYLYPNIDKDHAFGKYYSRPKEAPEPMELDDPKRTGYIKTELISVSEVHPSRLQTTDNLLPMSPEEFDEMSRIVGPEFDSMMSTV
Protocol: (§1) Nuclear extract preparations and electrophoretic mobility shift assay (EMSA) were carried out as previously described (28,33). […] Except where indicated, nuclear extracts were pre-incubated with compound for 30 min at room temperature prior to incubation with the radiolabeled probe for 30 min at 30° C. before subjecting to EMSA analysis.

Stat1:Stat3 complex = biological target: T2, Stat1:Stat3 complex (Mus musculus, UniProt P42227); experiment: as above; type: biochemical
T2 construct: endogenous in cells; host or cells: EGF-stimulated NIH3T3/hEGFR mouse fibroblasts (nuclear extract)
Protocol: as §1

Stat3:Stat3 complex = biological target: T3, Stat3:Stat3 complex (Mus musculus, UniProt P42227); experiment: as above; type: biochemical
T3 construct: endogenous in cells; host or cells: EGF-stimulated NIH3T3/hEGFR mouse fibroblasts (nuclear extract)
Protocol: as §1

Stat5:Stat5 complex = experiment: EMSA selectivity, nuclear extracts of EGF-stimulated NIH3T3/hEGFR, MGFe probe; type: biochemical, mouse; conditions: up to 300 μM
Protocol: as §1

[1] = system: colocalization of Stat3 and EGFR and Stat3 nuclear translocation; experiment: Immunofluorescence/confocal microscopy in EGF-stimulated NIH3T3/hEGFR; type: cell-based, mouse; conditions: 50 μM pre-treatment 30 min, EGF 10 min
Protocol: Cells were fixed with ice-cold methanol for 15 min, washed 3 times in PBS, permeabilized with 0.2% Triton® X-100 for 10 min, and further washed 3-4 times with PBS. Specimens were then blocked in 1% BSA for 30 min and incubated with EGFR (Santa Cruz) or Stat3 (Cell Signaling Tech) antibody at 1:50 dilution at 4° C. overnight. Subsequently, cells were rinsed 4-5 times in PBS, incubated with Alexafluor 546 rat antibody for EGFR detection and Alexa fluor 488 rabbit antibody for Stat3 detection (Invitrogen) for 1 h at room temperature in the dark. Specimens were then washed 5 times with PBS, covered with cover slides with […] mounting medium containing DAPI, and examined immediately under a Leica TCS SP5 confocal microscope (Germany) at appropriate wavelengths. Images were captured and processed using the Leica TCS SP 5 software.
Cells were then subjected to immunostaining for EGFR (red) and Stat3 (green) and analyzed by confocal microscopy for EGF-induced colocalization of Stat3 and EGFR and for Stat3 nuclear translocation, as previously performed (17). In the resting NIH3T3/hEGFR fibroblasts, EGFR (red) is widely localized at the plasma membrane, while Stat3 (green) is localized at both the plasma membrane and in the cytoplasm, with a minimal colocalization with EGFR at the plasma membrane and no visible presence in the nucleus (stained blue for DAPI) (FIG. 4A upper panel).

[2] = system: NIH3T3, Stat3-null MEFs (Stat3−/−), HPDEC, TE71; experiment: Viability and growth (CyQuant, trypan blue exclusion), cells without aberrant Stat3; type: cell-based, mouse, human; conditions: up to 200 μM
Source text: Aberrant Stat3 promotes malignant cell proliferation, survival and malignant transformation (10, 20, 42). Given that S3I201.1066 disrupts Stat3 activation, we asked the question whether this agent is able to selectively decrease the viability and growth of malignant cells that harbor aberrant Stat3 activity.

NIH3T3/v-Ras = experiment: Soft-agar colony formation assay; type: cell-based, mouse; conditions: concentrations that inhibit Stat3
Protocol: Colony formation assays were carried out in 6-well dishes, as described previously (16,37). Briefly, each well contained 1.5 ml of 1% agarose in Dulbeco's modified Eagle's medium as the bottom layer and 1.5 ml of 0.5% agarose in Dulbeco's modified Eagle's medium containing 4000 or 6000 NIH3T3/v-Src or NIH3T3/v-Ras fibroblasts, respectively, as the top layer. Treatment with S3I201.1066 was initiated 1 day after seeding cells by adding 80 μl of medium with or without S3I20.1.1066, and repeating every 3 days, until large colonies were evident. Colonies were quantified by staining with 20 μl of 1 mg/ml crystal violet, incubating at 37° C. overnight, and counting the next day under phase contrast microscope.

[3] = system: MDA-MB-231, Panc-1 and NIH3T3/v-Src cells; experiment: Wound healing assay for migration; type: cell-based, human, mouse
Source text: (§2) Wounds were made using pipette tips in monolayer cultures of cells in six-well plates. […] The migration of cells was visualized at a 10× magnification using an Axiovert 200 Inverted Fluorescence Microscope (Zeiss, Göttingen Germany), with pictures taken using a mounted Canon Powershot A640 digital camera (Canon USA, Lake Success, N.Y.). Cells that migrated into the denuded area were quantified. Mice and in vivo tumor studies-Six-week-old female athymic nude mice were purchased from Harlan and maintained in the institutional animal facilities approved by the American Association for Accreditation of Laboratory Animal Care. Athymic nude mice were injected subcutaneously in the left flank area with 5×10^6 human breast cancer MDA-MB-231 cells in 100 μL of PBS. After 5 to 10 days, tumors of a diameter of 3 mm were established. […] Tumor volume was calculated according to the formula V=0.52×a^2×b, where a, smallest superficial diameter, b, largest superficial diameter.

NIH3T3/v-Ras fibroblasts = experiment: Wound healing assay for migration; type: cell-based, mouse; conditions: same treatment conditions
Source text: as §2

[4] = system: human breast cancer (MDA-MB-231) xenografts; conditions: mouse, in vivo
Source text: as §2

T3 sequence (P42227 2-770 limits assumed, one chain of several): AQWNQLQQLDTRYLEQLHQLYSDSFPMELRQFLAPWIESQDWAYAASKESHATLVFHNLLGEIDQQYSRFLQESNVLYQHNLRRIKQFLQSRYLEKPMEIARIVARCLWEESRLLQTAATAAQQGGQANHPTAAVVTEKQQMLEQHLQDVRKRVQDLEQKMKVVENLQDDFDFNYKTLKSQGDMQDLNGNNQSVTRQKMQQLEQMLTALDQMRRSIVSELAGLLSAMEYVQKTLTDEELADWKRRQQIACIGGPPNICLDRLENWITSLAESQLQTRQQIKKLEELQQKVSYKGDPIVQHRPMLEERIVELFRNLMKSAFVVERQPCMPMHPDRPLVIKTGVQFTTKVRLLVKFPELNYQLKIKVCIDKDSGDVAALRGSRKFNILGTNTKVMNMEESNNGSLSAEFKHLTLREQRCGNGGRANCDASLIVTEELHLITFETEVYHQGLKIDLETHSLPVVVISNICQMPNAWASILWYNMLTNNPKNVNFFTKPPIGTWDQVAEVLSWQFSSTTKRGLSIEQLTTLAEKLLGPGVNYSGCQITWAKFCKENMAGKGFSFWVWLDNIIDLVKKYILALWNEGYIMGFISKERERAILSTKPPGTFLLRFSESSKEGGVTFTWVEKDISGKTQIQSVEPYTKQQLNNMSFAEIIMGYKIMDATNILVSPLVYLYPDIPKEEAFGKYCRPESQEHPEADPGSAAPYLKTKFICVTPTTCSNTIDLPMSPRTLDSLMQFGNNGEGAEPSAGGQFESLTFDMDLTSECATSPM
T2 sequence (P42227 2-770 limits assumed, one chain of several): as above

In the case of `Cc1ccc(S(=O)(=O)N(C)CC(=O)N(Cc2ccc(C3CCCCC3)cc2)c2ccc(C(=O)O)c(O)c2)cc1` [S3I-201.1066], the “inhibition of Stat1:Stat1 complex” value (Stat1:Stat1 complex; 50 μM) is reported as “no significant inhibition”, the “inhibition of Stat1:Stat1 complex” value (Stat1:Stat1 complex; 100 μM) is reported as “moderate inhibition” and the “inhibition of Stat1:Stat1 complex” value (Stat1:Stat1 complex; 200 μM) is reported as “complete inhibition”. The “effect on Stat1:Stat3 complex” value (Stat1:Stat3 complex; 50 μM) was “similarly repressed”, the “effect on Stat1:Stat3 complex” value (Stat1:Stat3 complex; 100 μM) was “completely disrupted” and the “effect on Stat3:Stat3 complex with hSIE probe” value (Stat3:Stat3 complex; 50 μM) was “significantly disrupted”. For the same compound, the “effect on Stat3:Stat3 complex with hSIE probe” value (Stat3:Stat3 complex; 100 μM) was “completely disrupted”, the “effect on Stat5:Stat5 complex with the MGFe probe” value (Stat5:Stat5 complex) was “no effect” and the “EGF-stimulated colocalization between EGFR and Stat3 and Stat3 nuclear localization” value [1] was “strongly blocked”. For the same compound, the viability and growth [2] was “not significantly altered”, the soft-agar growth (NIH3T3/v-Ras) was “minimal effect” and the “numbers of cells migrating into the denuded area” value (“numbers” for short) ([3]; 30 µM) was “statistically lower numbers”. For the same compound, the “numbers” value ([3]; 12-24 h treatment) was “Significantly reduced numbers”, the “apoptosis of the treated cells” value ([3]; 12-24 h treatment, data not shown) was “no evidence of apoptosis” and the “numbers” value ([3]; 50 or 100 μM) was “strongly reduced numbers”. For the same compound, the migration (NIH3T3/v-Ras fibroblasts) was “minimally affected” and the “toxicity in tumor-bearing mice” value [4] was “no obvious sign of toxicity”.
